“And” between values parts separate entries of the source, which are not always exact repeats. Equal entries are not always repeated. Where two headings read alike, the source gives them in different places.
How the values were obtained:
WBC [1] = experiment: WBC recovery rate after centrifugation (cell stabilization, Example 5); assay type: cell-based; conditions: Centrifugation: 20 min, 500×g
WBC [2] = experiment: as above; assay type: cell-based; conditions: Centrifugation: 20 min, 300×g; 10 min, 1 h, 2 h incubation
Experimental: A) WBC Recovery Rate after Centrifugation and Cell Immobilization Using Different Molecules
Centrifugation characteristics: 10 min, 300×g.
B) WBC Recovery Rate after Centrifugation Using Different Compounds—Different Points of Time
Centrifugation characteristics: 10 min, 300×g. A: Choleseryl-TEG-Cholesteryl-TEG-(SpacerC18)7-Fluos-Biotin-TEG.
C) WBC Recovery Rate after Centrifugation—Different Experimenters
Centrifugation characteristics: 10 min, 300×g. Molecule: Cholesteryl-TEG-Cholesteryl-TEG-(SpacerC18)7-Fluos-Biotin-TEG.
D) WBC Recovery Rate after Centrifugation—Different Points of Time and Centrifugation Settings
Centrifugation characteristics: 20 min, 300×g.

white blood cells (WBCs) = tested on: white blood cells (WBCs)
Experimental: In particular, the performance of a single cholesterol-molecule and different dual-linker molecules (i.e. containing two hydrophobic moieties) was tested. In detail, immobilization of white blood cells (WBCs) on a Streptavidin-coated surface using different linker molecules was tested on a 12-well plate: 300 000 WBCs/well. This was followed by the measurement of the cell recovery rate after immobilization and washing of the cells using the Cellavista instrument (10× Nuclei Operator s9s5).

WBCs [3] = experiment: Immobilization of cells: recovery rate of cells on SA (streptavidin) plate or untreated plate (Example 3); assay type: cell-based
Experimental: The following applies for modular description of the compounds below: X=hydrophobic moiety, […]=fluorescein In the following experiment, the recovery rate of cells was determined.

WBCs [4] = experiment: Labelling of cells using compounds (staining/uptake); assay type: cell-based
Text: (§1) 2. Labelling of Cells Using Compounds Useful in Methods of the Invention

MDA-MB468 = experiment: as above; assay type: cell-based
Text: as §1

U937 = experiment: as above; assay type: cell-based
Text: as §1

Epithelial cells = experiment: as above; assay type: cell-based
Text: as §1

COS 7 = experiment: as above; assay type: cell-based
Text: as §1

NIH 3T3 = experiment: as above; assay type: cell-based
Text: as §1

Hela = experiment: as above; assay type: cell-based
Text: as §1

CHO = experiment: as above; assay type: cell-based
Text: as §1

Jurkats = experiment: as above; assay type: cell-based
Text: as §1

[5] = Sample 1, first block (concentration not given), 300 000 WBCs/well
[6] = Sample 2, compound concentration: 100 pmol/10e6 WBCs
[7] = Sample 2, compound concentration: 1 nmol/10e6 WBCs

## 3′-(Myristic acid)2-PEG2000-dT-Biotin-TEG-5′ INVERS [compound 1255]
WBC [1]
  WBC recovery rate after centrifugation, performance ranking: followed by molecule 1255 and 1254
WBC [2]
  WBC recovery rate after centrifugation, performance ranking: followed by compound 1255 and 1254

## 5′-(Cholesteryl-TEG)2-Spacer C18-Fluos-Biotin_TEG-3′ INVERS [29.891254]
White blood cells (WBCs); [5]
  Recovery Rate: 57.63%
  cells counted per well: 157660 and 190148 and 170850
White blood cells (WBCs); Sample 1, compound concentration: 1 nmol/10e6 WBCs
  Recovery Rate: 82.19%
White blood cells (WBCs); Sample 1, compound concentration: 1 nmol/10e6 WBCs, 300 000 WBCs/well
  cells counted per well: 244649 and 234262 and 260760
White blood cells (WBCs); [6]
  Mean (cells counted per well): 197067.00
  Recovery Rate: 65.69%
White blood cells (WBCs); Sample 2, compound concentration: 100 pmol/10e6 WBCs, 300 000 WBCs/well
  cells counted per well: 205917 and 185100 and 200184
White blood cells (WBCs); [7]
  Mean (cells counted per well): 245376.00
  Recovery Rate: 81.79%
White blood cells (WBCs); Sample 2, compound concentration: 1 nmol/10e6 WBCs, 300 000 WBCs/well
  cells counted per well: 247428 and 244396 and 244304
WBCs [3]; 10 pmol/10e6 cells
  Recovery Rate: 40.30%
WBCs [3]; 100 pmol/10e6 cells
  Recovery Rate: 64.60% and 57.63% and 65.69% and 70.07% and 81.28%
WBCs [3]; 1 nmol/10e6 cells
  Recovery Rate: 92.50% and 82.19% and 81.79% and 74.68%
WBCs [3]; 10 nmol/10e6 cells
  Recovery Rate: 83.60%
WBC [1]
  WBC recovery rate after centrifugation, performance ranking: followed by molecule 1255 and 1254
WBC [2]
  WBC recovery rate after centrifugation, performance ranking: followed by compound 1255 and 1254

## 5′-Cholesteryl-TEG-PEG2000-Fluos-3′ [29.891132]
WBCs [4]
  Labelling (staining/uptake) of cells: ✓ not all
MDA-MB468
  Labelling (staining/uptake) of cells: ✓
U937
  Labelling (staining/uptake) of cells: ✓
Epithelial cells
  Labelling (staining/uptake) of cells: ✓

## 5′-CholesterylTEG-CholesterylTEG-(SpacerC18)7-dT(Determ. of concentration)-BiotinTEG-3′ [compound 1234]
WBCs [3]; 10 pmol/10e6 cells
  Recovery Rate: 9.6%
WBCs [3]; 100 pmol/10e6 cells
  Recovery Rate: 18.8%
WBCs [3]; 300 pmol/10e6 cells
  Recovery Rate: 26.8%
WBCs [3]; 500 pmol/10e6 cells
  Recovery Rate: 24.9%
WBCs [3]; 10 nmol/10e6 cells
  Recovery Rate: 99.7%
WBCs [3]; WBCs, 350 pmol/10e6 cells, 0.000003% Tween21
  Recovery Rate: 13.0% and 25.0%
WBCs [3]; WBCs, 350 pmol/10e6 cells, 0.00001% Tween20
  Recovery Rate: 14.0% and 23.0%
WBCs [3]; WBCs, 350 pmol/10e6 cells, 0.00003% Tween20
  Recovery Rate: 12.0% and 20.0%
WBCs [3]; WBCs, 350 pmol/10e6 cells, 0.00003% Tween22
  Recovery Rate: 22.0% and 36.0%
WBCs [3]; WBCs, 350 pmol/10e6 cells, 0.0001% Tween21
  Recovery Rate: 22.0% and 28.0%
WBCs [3]; WBCs, 350 pmol/10e6 cells, 0.0003% Tween20
  Recovery Rate: 12.0% and 18.0%
WBCs [3]; WBCs, 350 pmol/10e6 cells, 0.001% Tween20
  Recovery Rate: 10.0% and 15.0%
WBCs [3]; WBCs, 350 pmol/10e6 cells, 1:1 diluted
  Recovery Rate: 22.0% and 25.0%
WBCs [3]; WBCs, 350 pmol/10e6 cells, US + 10′ 98° C.
  Recovery Rate: 27.0% and 23.0%
WBCs [3]; WBCs, 350 pmol/10e6 cells, not evaporated, VIVA Spin
  Recovery Rate: 18.0% and 19.0%
WBCs [3]; WBCs, 350 pmol/10e6 cells, untreated
  Recovery Rate: 17.0% and 13.0%
WBCs [3]; WBCs, 1000 pmol/10e6 cells
  Recovery Rate: 35.4%
WBCs [3]; WBCs, 1000 pmol/10e6 cells, not evaporated, VIVA Spin
  Recovery Rate: 42.0% and 45.0%
WBC [1]
  WBC recovery rate after centrifugation, performance ranking: best performance
WBC [2]
  WBC recovery rate after centrifugation, performance ranking: best performance

## 5′-CholesterylTEG-CholesterylTEG-PEG2000-Fluos-3′ [29.891133]
COS 7
  Labelling (staining/uptake) of cells: ✓
NIH 3T3
  Labelling (staining/uptake) of cells: ✓
MDA-MB468
  Labelling (staining/uptake) of cells: ✓
U937
  Labelling (staining/uptake) of cells: ✓
Epithelial cells
  Labelling (staining/uptake) of cells: ✓
Hela
  Labelling (staining/uptake) of cells: ✓
CHO
  Labelling (staining/uptake) of cells: ✓
Jurkats
  Labelling (staining/uptake) of cells: ✓

## 5′-alphaTocopherolTEG-PEG2000-Fluos-3′ [29.891131]
WBCs [4]
  Labelling (staining/uptake) of cells: ✓ not all
MDA-MB468
  Labelling (staining/uptake) of cells: ✓
U937
  Labelling (staining/uptake) of cells: ✓
Epithelial cells
  Labelling (staining/uptake) of cells: ✓

## CCCCCCCCCCCCCCCCCCN1C(=CC=CC2=[N+](CCCCCCCCCCCCCCCCCC)c3ccccc3C2(C)C)C(C)(C)c2ccccc21.[O-][Cl+3]([O-])([O-])[O-] [1,1′-Dioctadecyl-3,3,3′,3′-tetramethylindocarbocyanin perchlorate]
WBCs [4]
  Labelling (staining/uptake) of cells: ✓ not all
COS 7
  Labelling (staining/uptake) of cells: ✓
NIH 3T3
  Labelling (staining/uptake) of cells: ✓*
MDA-MB468
  Labelling (staining/uptake) of cells: ✓
U937
  Labelling (staining/uptake) of cells: ✓
Epithelial cells
  Labelling (staining/uptake) of cells: ✓
Hela
  Labelling (staining/uptake) of cells: ✓
CHO
  Labelling (staining/uptake) of cells: ✓
Jurkats
  Labelling (staining/uptake) of cells: ✓

## CCCCC/C=C\C/C=C\CCCCCCCCN1C(=CC=CC2=[N+](CCCCCCCC/C=C\C/C=C\CCCCC)c3ccccc3C2(C)C)C(C)(C)c2ccccc21.[O-][Cl+3]([O-])([O-])[O-] [Linol, 1,1′-dilinoleyl-3,3,3′,3′-tetramethylindocarbocyanine perchlorate]
COS 7
  Labelling (staining/uptake) of cells: ✓
NIH 3T3
  Labelling (staining/uptake) of cells: ✓
MDA-MB468
  Labelling (staining/uptake) of cells: ✓
U937
  Labelling (staining/uptake) of cells: ✓
Epithelial cells
  Labelling (staining/uptake) of cells: ✓
Hela
  Labelling (staining/uptake) of cells: ✓
CHO
  Labelling (staining/uptake) of cells: ✓
Jurkats
  Labelling (staining/uptake) of cells: ✓

## CCCCCCCCCCCCCCCCCCCCCC[N+]1=C(/C=C/C=C2/N(CCCCCCCCCCCCCC)c3ccccc3C2(C)C)C(C)(C)c2ccccc21.[I-] [PKH26]
COS 7
  Labelling (staining/uptake) of cells: ✓
NIH 3T3
  Labelling (staining/uptake) of cells: ✓
MDA-MB468
  Labelling (staining/uptake) of cells: ✓
U937
  Labelling (staining/uptake) of cells: ✓
Epithelial cells
  Labelling (staining/uptake) of cells: ✓ not all
Hela
  Labelling (staining/uptake) of cells: ✓*
CHO
  Labelling (staining/uptake) of cells: ✓
Jurkats
  Labelling (staining/uptake) of cells: ✓

## CCCCCCCCCCCCCCCC(=O)OC[C@H](COP(=O)(O)OCCNC(=O)CCc1ccc2n1[B-](F)(F)[N+]1=C(C)C=C(C)C1=C2)OC(=O)CCCCCCCCCCCCCCC.CCN(CC)CC [Phosphatidylethanolamine, N-(4,4-difluoro-5,7-dimethyl-4-bora-3a,4a-diaza-s-indacene-3-propionyl)-1,2-dihexadecanoyl-sn-glycero-3-phosphoethanolamine, triethylammonium salt]
Hela
  Labelling (staining/uptake) of cells: x/✓ very weak

## CCCCCCCCCCCCC/C=C/[C@@H](O)[C@H](COP(=O)([O-])OCC[N+](C)(C)C)NC(=O)CCCCc1ccc2n1[B-](F)(F)[N+]1=C(C)C=C(C)C1=C2 [Sphingomyelin, N-(4,4-difluoro-5,7-dimethyl-4-bora-3a,4a-diaza-s-indacene-3-pentanoyl)sphingosyl phosphocholine]
WBCs [4]
  Labelling (staining/uptake) of cells: (x)- very bad
Epithelial cells
  Labelling (staining/uptake) of cells: ✓
Hela
  Labelling (staining/uptake) of cells: ✓
CHO
  Labelling (staining/uptake) of cells: x very weak
